Laboratory results: patent US20180078576A1, “SULPHATED XYLANS FOR TREATMENT OR PROPHYLAXIS OF RESPIRATORY DISEASES” (Paradigm Biopharmaceuticals Limited, priority 2007, published 2018)
pIC50: −log10 of the molar value. Marks after values point to notes of the source that are not given here.

Columns and labels:
[1] = test system: Guinea-pigs sensitized to ovalbumin; experiment: Guinea pig model of asthma, airway hyper-reactivity 24 h after OVA challenge; assay type: in vivo; conditions: Dexamethasone 15 mg/kg, glycan compounds 10 mg/kg, intratracheal microspray
Procedure: A guinea pig model of asthma was used. Guinea-pigs (8 per group) were sensitized to ovalbumin by two intraperitoneal injections of ovalbumin (grade V, 20 μg) in aluminium hydroxide gel on Days 1 and 11. On day 20 (24 hours prior to assessing airway hyper-reactivity (AHR)) each animal received a challenge dose of OVA—this took the form of a 1 hour aerosol exposure of OVA (10 μg). The negative control animals received, no sensitization and no challenge. The positive controls were sensitized and challenged but were either given no further treatment or were treated with vehicle (saline). Test compounds (PPS and the sulfated xylan pentasaccharide) and vehicle were administered by intratracheal administration as an aqueous microspray using a Penn Century device. The device used was the FMJ250 high pressure syringe and a 1A-1C microspray delivery tube. The particle size delivery goes up to 32 μm. During the study the volume delivered was 100 ul for all test formulations. The test compounds were administered 30 min before challenge with OVA. The animals underwent surgery 24 hours after challenge to insert a cannula into the trachea, the cannula was connected to the instrumentation which measured pressure and changes in airflow. After surgery the animals were allowed to stabilize for 10 min before baseline readings were taken. Bronchoconstriction was evoked with aerosolized methacholine (10 mg/ml and 30 mg/ml) for 20 seconds. The difference between baseline readings and that obtained after methacholine were used to calculate Cdyn and RL. Thus, measurements of lung function were taken approximately 25 hours after the drug was administered. Both pentosan polysulfate and the sulfated xylan pentasaccharide when administered at 10 mg/kg were effective in reducing the airway hyper-reactivity readings. Their efficacy was approximately equivalent to that usually seen with 7.5 mg/kg of dexamethasone in this model.

Human leukocyte elastase = target: T1, Human leukocyte elastase (Homo sapiens, UniProt P08246); experiment: Elastase assay with fluorogenic substrate; assay type: biochemical; conditions: fluorogenic substrate MeOSuc-Ala-Ala-Pro-Val-amido-methylcoumarin, pH 7.4, 37° C., 60 minutes; read-out: IC50, inhibition of human leukocyte elastase activity
T1 sequence (P08246 30-267): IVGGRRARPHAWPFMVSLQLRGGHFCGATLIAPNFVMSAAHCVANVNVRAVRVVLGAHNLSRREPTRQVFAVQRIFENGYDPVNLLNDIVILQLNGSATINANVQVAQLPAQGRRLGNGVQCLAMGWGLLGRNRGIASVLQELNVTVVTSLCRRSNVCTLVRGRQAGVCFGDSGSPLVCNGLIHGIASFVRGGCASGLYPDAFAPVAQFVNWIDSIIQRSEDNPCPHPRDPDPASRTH
Procedure: Elastase is a protein that is a potential target for the treatment of COPD. Elastase assays were performed in 96-well plastic microplates for easy quantification by the fluorescent plate reader. Human leukocyte elastase (5 nM/well) was incubated in the presence of absence of pentosan polysulfate, or other sulfated polysaccharides, with the fluorogenic substrate MeOSuc-Ala-Ala-Pro-Val-amido-methylcoumarin (20 μM/well) in a sodium phosphate buffer, pH 7.4. The mixture was incubated at 37° C. for 60 minutes before the reaction was stopped by the addition of 10 μl/well of […] acetic acid and the mixture transferred to a 96-well microplate with fluorescence being measured using an excitation wavelength of 355 nm and an emission wavelength of 460 nm. Various concentrations of inhibitors were used to allow the calculation of the concentration of polysaccharide required to inhibit enzyme activity by 50% (IC50).

[2] = target: T2, recombinant human IL-5 (rhIL-5) (Homo sapiens, UniProt P05113); experiment: BIAcore inhibition of IL-5 binding to immobilized heparin; conditions: BIAcore chip, titration, FIG. 3B
T2 construct: made in house; host or cells: baculovirus expression system
T2 sequence (P05113 20-134): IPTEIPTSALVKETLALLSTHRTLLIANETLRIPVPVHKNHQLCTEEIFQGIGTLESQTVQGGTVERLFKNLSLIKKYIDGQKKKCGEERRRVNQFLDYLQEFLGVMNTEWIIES
Excerpt: (§1) The optical phenomenon of surface plasmon resonance is used to monitor physical interactions between molecules. Passing a solution of a potential protein ligand (e.g. IL-4, IL-5 or eotaxin) over a sensor surface to which a target (e.g. heparin) is coupled monitors the real-time binding of protein ligands to the immobilized target. Detection is achieved by measuring refractive index changes very close to the sensor surface. When the refractive index is altered, the angle at which plasmon resonance occurs changes and this change directly correlates with the amount of protein interacting with the surface. A BIAcore 2000 is conveniently used. […]
(§2) Biotinylated heparin is immobilized on the biosensor chip. […] Solutions containing potential protein ligands of interest are injected over the sensor chip surface, and the binding is measured in real time (Fernig, In: Proteoglycan protocols, Ed. R. V. Iozzo, Humana Press, Totowa, N.J., USA, 2001). Baculovirus expressed recombinant human IL-4 (rhIL-4) and baculovirus expressed recombinant human IL-5 (rhIL-5) readily bind to heparin immobilized by this method (see PCT/AU2005/000551). […] Similarly, recombinant human eotaxin (CCL11) expressed in E. coli binds readily to immobilized heparin and binding is specific as there is little eotaxin binding to sensor chips lacking heparin. […]

[3] = target: T3, recombinant human eotaxin (CCL11) (Homo sapiens, UniProt P51671); experiment: BIAcore inhibition of eotaxin-1 binding to immobilized heparin; conditions: BIAcore chip, FIG. 3D
T3 construct: host or cells: E. coli
T3 sequence (P51671 24-97): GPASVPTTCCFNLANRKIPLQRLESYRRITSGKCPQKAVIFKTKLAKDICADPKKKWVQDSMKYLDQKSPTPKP
Excerpt: as §1, §2

Row | Compound | Cdyn, % increase from that of the positive control ([1]; MCh 10 mg/ml) [% **] | RL, % decrease from that of the positive control ([1]; MCh 10 mg/ml) [% **] | Cdyn, % increase from that of the positive control ([1]; MCh 30 mg/ml) [% **^] | RL, % decrease from that of the positive control ([1]; MCh 30 mg/ml) [% **] | pIC50 (Human leukocyte elastase) | pIC50 [2] | pIC50 [3]
1 | C[C@@H]1C[C@H]2[C@@H]3CCC4=CC(=O)C=C[C@]4(C)[C@@]3(F)[C@@H](O)C[C@]2(C)[C@@]1(O)C(=O)CO [Dexamethasone] | 76.5 | 93.9 | 84.8 | 86 | – | – | –
2 | heparin | – | – | – | – | ~6.70 | 7.00 to 7.52 | ~6.80
